Measurements reported in patent US20220233512A1, “INHIBITING AN IMMUNE RESPONSE MEDIATED BY ONE OR MORE OF TLR2, RAGE, CCR5, CXCR4 AND CD4” (priority 2020, published 2022).

How the values were obtained:
[1] = target: T1, biotinylated FLNA pentapeptide of positions 2561-2565 (Homo sapiens, UniProt P21333); experiment: FITC-NLX-based FLNA screening assay; assay type: binding; conditions: for Percent inhibition of FITC-NLX binding (preliminary study): 100 nM frozen-stored FITC-NLX, average of two runs
T1 construct: the biotinylated FLNA pentapeptide of positions 2561-2565
Protocol: [50 ml of the peptide solution from B+50 ml binding medium, final concentration for DMSO: 0.5%].
The final assay volume is 100 ml.
The final screening concentration for each new compound is initially 10 mM.
Compounds are tested in triplicate or quadruplicate.

[2] = target: T2, mu opiate receptor (MOR) (Rattus norvegicus, UniProt P33535); experiment: MOR agonist activity using [35S]GTPgS binding assay in striatal membranes; assay type: biochemical; set-up: MOR agonist activity (preliminary study): unit of the concentration uncertain; conditions: for MOR agonist activity (preliminary study): average of two runs
T2 construct: from tissue; host or cells: striatum (membrane preparation)
In short: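 Rat striatal membranes incubated 5 min at 30 °C in pH 7.5 HEPES buffer with 100 mM NaCl, 1 mM MgCl2 and 0.5 nM [35S]GTPgS, then 5 min with compound. Gαo-bound [35S]GTPgS isolated by immunoprecipitation and counted by liquid scintillation.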

[3] = target: FLNA interactions with CXCR4, CD4 and CCR5 (Homo sapiens, UniProt P21333); experiment: FLNA interactions with CXCR4, CD4 and CCR5 in lymphocytes (western blot); conditions: 1 nM; lymphocytes of Ab42-treated young control subject and of AD patient
[4] = 0.1 μM compound as agonist, Series C-1 table
[5] = 1 μM compound as agonist, Series C-1 table
[6] = 0.1 μM compound as agonist, Series C-2 table
[7] = 1 μM compound as agonist, Series C-2 table

T2 sequence (P33535 whole entry): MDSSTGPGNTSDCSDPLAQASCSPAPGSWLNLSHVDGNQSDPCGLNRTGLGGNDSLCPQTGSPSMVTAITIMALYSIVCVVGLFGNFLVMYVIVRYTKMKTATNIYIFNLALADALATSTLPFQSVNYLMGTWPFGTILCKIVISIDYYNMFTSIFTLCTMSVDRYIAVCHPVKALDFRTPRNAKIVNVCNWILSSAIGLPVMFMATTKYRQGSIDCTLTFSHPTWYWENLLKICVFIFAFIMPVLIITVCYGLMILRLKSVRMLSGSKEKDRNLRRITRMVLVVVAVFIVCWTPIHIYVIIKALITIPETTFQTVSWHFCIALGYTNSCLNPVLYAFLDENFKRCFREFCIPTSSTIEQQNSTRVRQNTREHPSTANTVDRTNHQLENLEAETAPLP
Chain of FLNA interactions with CXCR4, CD4 and CCR5 (P21333 2-2647 limits assumed): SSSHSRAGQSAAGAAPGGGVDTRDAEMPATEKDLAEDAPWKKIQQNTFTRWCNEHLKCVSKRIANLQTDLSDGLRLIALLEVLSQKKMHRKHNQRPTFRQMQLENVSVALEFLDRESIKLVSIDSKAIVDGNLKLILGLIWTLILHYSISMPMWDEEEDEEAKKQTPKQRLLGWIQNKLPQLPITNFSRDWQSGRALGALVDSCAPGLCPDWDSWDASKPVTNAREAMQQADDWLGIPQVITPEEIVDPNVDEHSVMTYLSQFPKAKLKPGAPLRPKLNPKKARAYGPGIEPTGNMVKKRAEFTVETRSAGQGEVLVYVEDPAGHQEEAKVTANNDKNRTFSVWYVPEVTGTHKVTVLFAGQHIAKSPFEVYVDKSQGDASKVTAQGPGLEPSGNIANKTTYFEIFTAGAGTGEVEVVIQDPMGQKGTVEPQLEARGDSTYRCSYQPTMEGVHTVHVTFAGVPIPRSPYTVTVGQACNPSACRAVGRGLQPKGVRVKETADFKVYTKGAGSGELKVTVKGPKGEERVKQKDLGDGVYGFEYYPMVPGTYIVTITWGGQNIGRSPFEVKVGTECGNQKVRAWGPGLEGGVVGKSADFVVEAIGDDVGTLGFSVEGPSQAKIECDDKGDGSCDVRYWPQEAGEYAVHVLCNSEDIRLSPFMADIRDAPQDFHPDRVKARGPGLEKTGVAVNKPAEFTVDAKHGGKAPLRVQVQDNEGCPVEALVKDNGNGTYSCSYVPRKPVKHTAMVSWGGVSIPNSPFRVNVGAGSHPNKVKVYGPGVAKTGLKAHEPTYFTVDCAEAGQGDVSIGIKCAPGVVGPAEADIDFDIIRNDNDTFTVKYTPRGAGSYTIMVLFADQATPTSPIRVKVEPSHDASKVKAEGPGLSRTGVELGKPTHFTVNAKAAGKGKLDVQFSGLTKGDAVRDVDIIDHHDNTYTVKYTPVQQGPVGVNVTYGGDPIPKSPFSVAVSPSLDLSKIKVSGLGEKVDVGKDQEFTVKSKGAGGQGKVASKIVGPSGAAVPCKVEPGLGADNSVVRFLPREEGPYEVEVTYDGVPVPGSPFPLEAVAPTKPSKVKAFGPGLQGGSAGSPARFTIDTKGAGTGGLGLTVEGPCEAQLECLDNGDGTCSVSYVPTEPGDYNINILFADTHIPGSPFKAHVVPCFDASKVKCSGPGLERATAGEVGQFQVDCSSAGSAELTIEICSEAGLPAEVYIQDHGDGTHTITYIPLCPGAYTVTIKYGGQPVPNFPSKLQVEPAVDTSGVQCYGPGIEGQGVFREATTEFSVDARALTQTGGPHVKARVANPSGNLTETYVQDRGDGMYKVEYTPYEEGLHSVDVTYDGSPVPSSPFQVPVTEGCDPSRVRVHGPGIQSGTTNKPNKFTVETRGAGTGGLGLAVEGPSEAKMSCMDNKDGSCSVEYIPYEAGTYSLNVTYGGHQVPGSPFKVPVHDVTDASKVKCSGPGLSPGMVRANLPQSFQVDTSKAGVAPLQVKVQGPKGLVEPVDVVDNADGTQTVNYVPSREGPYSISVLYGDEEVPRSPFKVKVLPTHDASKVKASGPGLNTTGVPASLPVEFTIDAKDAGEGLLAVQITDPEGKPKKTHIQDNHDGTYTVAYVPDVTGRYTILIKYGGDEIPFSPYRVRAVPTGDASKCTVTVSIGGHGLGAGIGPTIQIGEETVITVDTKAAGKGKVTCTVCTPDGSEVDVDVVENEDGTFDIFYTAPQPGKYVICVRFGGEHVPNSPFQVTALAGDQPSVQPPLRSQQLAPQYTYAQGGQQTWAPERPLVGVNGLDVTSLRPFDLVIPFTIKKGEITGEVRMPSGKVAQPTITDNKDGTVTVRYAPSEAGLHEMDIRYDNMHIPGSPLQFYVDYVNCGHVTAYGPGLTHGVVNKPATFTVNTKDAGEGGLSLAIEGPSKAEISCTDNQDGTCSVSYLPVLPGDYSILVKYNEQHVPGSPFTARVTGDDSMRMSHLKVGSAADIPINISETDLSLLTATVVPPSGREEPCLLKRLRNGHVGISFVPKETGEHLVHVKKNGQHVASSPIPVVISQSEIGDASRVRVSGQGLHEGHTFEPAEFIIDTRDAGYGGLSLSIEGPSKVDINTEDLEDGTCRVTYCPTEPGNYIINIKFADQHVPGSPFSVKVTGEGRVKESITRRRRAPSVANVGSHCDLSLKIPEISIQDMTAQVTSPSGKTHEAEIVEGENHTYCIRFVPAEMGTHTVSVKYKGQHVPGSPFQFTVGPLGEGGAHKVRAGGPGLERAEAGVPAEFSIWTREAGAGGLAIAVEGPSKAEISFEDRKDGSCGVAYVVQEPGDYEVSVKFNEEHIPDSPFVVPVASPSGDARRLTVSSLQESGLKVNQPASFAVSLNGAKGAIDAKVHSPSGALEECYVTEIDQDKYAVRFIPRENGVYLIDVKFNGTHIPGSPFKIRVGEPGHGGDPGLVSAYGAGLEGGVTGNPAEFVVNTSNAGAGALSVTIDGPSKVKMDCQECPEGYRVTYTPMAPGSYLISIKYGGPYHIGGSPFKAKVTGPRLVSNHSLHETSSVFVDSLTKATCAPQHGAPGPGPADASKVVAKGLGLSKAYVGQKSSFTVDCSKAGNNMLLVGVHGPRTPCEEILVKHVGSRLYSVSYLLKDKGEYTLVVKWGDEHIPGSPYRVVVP

Row | SMILES | MOR agonist activity ([35S]GTPgS binding to Gao) [2, 4] [%] | MOR agonist activity ([35S]GTPgS binding to Gao) ([2]; 1 μM + BFNA, Series C-1 table) [%] | MOR agonist activity ([35S]GTPgS binding to Gao) [2, 5] [%] | MOR agonist activity ([35S]GTPgS binding to Gao) [2, 6] [%] | MOR agonist activity ([35S]GTPgS binding to Gao) ([2]; 1 μM + BFNA, Series C-2 table) [%] | MOR agonist activity ([35S]GTPgS binding to Gao) [2, 7] [%] | further results
1 | C=CCN1CC[C@]23c4c5ccc(O)c4O[C@H]2C(=O)CC[C@]3(O)[C@H]1C5 [(+) NLX] |  |  |  |  |  |  | Percent inhibition of FITC-NLX binding (preliminary study) ([1]; 0.1 nM compound): 22.7%; Percent inhibition of FITC-NLX binding (preliminary study) ([1]; 1 nM compound): 22.8%; Percent inhibition of FITC-NLX binding (preliminary study) ([1]; 10 nM compound): 23.1%; Percent inhibition of FITC-NLX binding (preliminary study) ([1]; 100 nM compound): 22.8%; Percent inhibition of FITC-NLX binding (preliminary study) ([1]; 1 mM compound): 39.8%
2 | Nc1ccc(C(=O)N2CCC3(CC2)OCCN3S(=O)(=O)c2ccc(N)cc2)cc1 [Compound C0023] | 153.2 | 23.2 | 233.7 |  |  |  | inhibition at 0.01 µM ([1]; 0.01 μM compound, C-Series-1 table, 10 nM FITC-NLX, read-out: Percent Binding Inhibition): 35.9%; inhibition at 0.1 µM ([1]; 0.1 μM compound, C-Series-1 table, 10 nM FITC-NLX, read-out: Percent Binding Inhibition): 41.7%; inhibition at 1 µM ([1]; 1 μM compound, C-Series-1 table, 10 nM FITC-NLX, read-out: Percent Binding Inhibition): 47.2%
3 | C[C@@H](NC(=O)[C@@H](N)Cc1ccc(O)cc1)C(=O)NCC(=O)N(C)[C@@H](Cc1ccccc1)C(=O)NCCO [DAMGO, [D-Ala2, N-MePhe4, Gly-ol]-enkephalin, reference compound] | 168.5 | 53.2 | 266.1 | 168.5 | 53.2 | 266.1 | MOR agonist activity (preliminary study) ([2]; 1 mM + bNFA): 56.8%; MOR agonist activity (preliminary study) ([2]; 0.1 (unit uncertain) compound as agonist): 144.7%; MOR agonist activity (preliminary study) ([2]; 1 (unit uncertain) compound as agonist): 233.4%
4 | C=CCN1CC[C@]23c4c5ccc(O)c4O[C@H]2C(=O)CC[C@@]3(O)[C@H]1C5 [Naloxone, naloxone, reference compound] |  |  |  |  |  |  | FLNA linkages with CXCR4, CD4 and CCR5 (in words) [3]: reduced these linkages
5 | COc1ccc(S(=O)(=O)N2CCSC23CCNCC3)cc1 [S-C0027] |  |  |  | 156.2 | 56.2 | 286.8 | 
